In EP0426029A1, “Injectable formulation for lipophilic drugs” (ABBOTT LABORATORIES, priority 1989, dated 1991):

System: mice
Assay: Mouse scratch test (irritation/pain at the injection site)
Type: in vivo
Procedure: A scratch test was conducted in mice to measure the response to the sensation of irritation, i.e., the pain associated with an injection. Formulations were administered subcutaneously at a dose of 5 ml/kg to groups of mice (10/group) weighing 20 to 40 g each. The number of times that each mouse scratched the injection site was then counted for exactly five minutes.

Structure (SMILES): CC[C@H]1OC(=O)[C@H](C)[C@@H](O[C@H]2C[C@@](C)(OC)[C@@H](O)[C@H](C)O2)[C@H](C)[C@@H](O[C@@H]2O[C@H](C)C[C@H](N(C)C)[C@H]2O)[C@](C)(OC)C[C@@H](C)C(=O)[C@H](C)[C@@H](O)[C@]1(C)O [Clarithromycin Lactobionate, Clarithromycin lactobionate]
- No. of Scratches (Table I, subcutaneous, 5 ml/kg, mice (10/group), scratches of injection site counted for five minutes, 5 mg/ml in clarithromycin): 22.0 ± 7.2
- NO. OF SCRATCHES (Table II, mouse scratch test, all solutions 5 mg/ml clarithromycin, pH as shown in formulation): 15.1 ± 4.4
